Laboratory results as given in ChEMBL document CHEMBL1131812, “Novel conformationally restricted tetracyclic analogs of delta8-tetrahydrocannabinol” (Bioorg Med Chem Lett, 1999).
pKi: −log10 of the molar value.

Key:
Cannabinoid receptor 1 = Cannabinoid receptor 1 (Rattus norvegicus, UniProt P20272); experiment: Binding affinity towards cannabinoid receptor 1 in rat forebrain membranes.; format: cell membranes
Cannabinoid receptor 2 = Cannabinoid receptor 2 (Mus musculus, UniProt P47936); experiment: Binding affinity towards Cannabinoid receptor 2 in mouse spleen membranes; format: cell membranes
Sequence of Cannabinoid receptor 2 (P47936 whole entry): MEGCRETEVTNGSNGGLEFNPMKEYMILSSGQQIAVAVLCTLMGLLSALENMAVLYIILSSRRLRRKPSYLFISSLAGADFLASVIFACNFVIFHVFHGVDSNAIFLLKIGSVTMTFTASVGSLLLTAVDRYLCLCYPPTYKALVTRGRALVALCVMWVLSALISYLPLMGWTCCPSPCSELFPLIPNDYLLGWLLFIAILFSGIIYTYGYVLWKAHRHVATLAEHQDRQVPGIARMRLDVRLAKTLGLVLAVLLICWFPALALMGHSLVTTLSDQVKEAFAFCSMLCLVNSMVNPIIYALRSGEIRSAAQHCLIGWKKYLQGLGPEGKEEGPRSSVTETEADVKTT

Sequence of Cannabinoid receptor 1 (P20272 whole entry): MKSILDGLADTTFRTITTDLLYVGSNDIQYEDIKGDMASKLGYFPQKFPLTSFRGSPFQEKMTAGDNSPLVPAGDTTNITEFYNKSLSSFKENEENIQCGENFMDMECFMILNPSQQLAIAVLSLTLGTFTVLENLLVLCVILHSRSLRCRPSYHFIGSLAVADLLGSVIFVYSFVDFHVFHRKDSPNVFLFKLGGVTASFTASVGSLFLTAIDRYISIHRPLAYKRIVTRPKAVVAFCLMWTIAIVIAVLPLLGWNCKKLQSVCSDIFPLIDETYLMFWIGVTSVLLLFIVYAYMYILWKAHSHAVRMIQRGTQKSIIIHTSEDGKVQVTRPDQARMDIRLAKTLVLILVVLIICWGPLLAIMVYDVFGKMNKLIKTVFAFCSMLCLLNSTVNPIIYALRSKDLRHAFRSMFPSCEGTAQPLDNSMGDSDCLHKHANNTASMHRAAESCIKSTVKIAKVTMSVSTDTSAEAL

SMILES | pKi (Cannabinoid receptor 1) | pKi (Cannabinoid receptor 2)
CCCCCCC1CCCc2c1cc1c(c2O)[C@@H]2CC(C)=CC[C@H]2C(C)(C)O1 (stereo partly drawn) | 7.65 | 7.23
CCCCCC1CCc2c(cc3c(c2O)[C@@H]2CC(C)=CC[C@H]2C(C)(C)O3)C1 (stereo partly drawn) | 6.40 | 6.79
CCCCCCC1CCCc2c1cc(O)c1c2OC(C)(C)[C@@H]2CC=C(C)C[C@@H]12 (stereo partly drawn) | 6.27 | 6.34
CCCCCCCc1cc(O)c2c(c1)OC(C)(C)[C@@H]1CC=C(C)C[C@@H]21 | 9.37 | 9.41
